Assay results as given in PMC6968383, “Design, synthesis, in vitro and in vivo evaluation of benzylpiperidine-linked 1,3-dimethylbenzimidazolinones as cholinesterase inhibitors against Alzheimer’s disease” (Journal of Enzyme Inhibition and Medicinal Chemistry, 2019).
Where two headings read alike, the source gives them in different places.

Tests used:
[1] = target: T1, AChE (EC 3.1.1.7) from electric eel (Electrophorus electricus, UniProt O42275); test: biochemical; assay type: biochemical; conditions: for SI (selectivity index = AChE IC50/BChE IC50): eeAChE IC50 / eqBChE IC50; for inhibition at 100 µM: read-out: AChE IR (inhibitory rate)
T1 construct: purchased Sigma-Aldrich
T1 sequence (O42275 24-633): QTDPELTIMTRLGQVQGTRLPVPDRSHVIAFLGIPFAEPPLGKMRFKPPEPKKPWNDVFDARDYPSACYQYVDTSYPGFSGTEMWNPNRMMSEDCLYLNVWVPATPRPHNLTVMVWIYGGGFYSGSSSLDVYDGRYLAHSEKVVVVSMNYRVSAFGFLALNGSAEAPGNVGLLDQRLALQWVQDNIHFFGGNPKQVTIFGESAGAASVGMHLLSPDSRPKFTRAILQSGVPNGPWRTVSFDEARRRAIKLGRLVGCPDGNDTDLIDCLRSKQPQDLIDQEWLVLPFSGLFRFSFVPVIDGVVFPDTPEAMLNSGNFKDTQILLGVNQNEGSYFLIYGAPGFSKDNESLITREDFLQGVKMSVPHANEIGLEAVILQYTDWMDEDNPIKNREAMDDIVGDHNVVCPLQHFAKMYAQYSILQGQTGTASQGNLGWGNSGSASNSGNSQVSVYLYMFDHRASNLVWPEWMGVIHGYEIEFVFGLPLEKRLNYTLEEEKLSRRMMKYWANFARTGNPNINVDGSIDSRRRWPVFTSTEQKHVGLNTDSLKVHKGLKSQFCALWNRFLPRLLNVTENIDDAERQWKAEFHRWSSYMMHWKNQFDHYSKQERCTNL
Experimental: (§1) The data were expressed as IC50 values (Table 1).
(§2) The inhibitory activities of the target compounds towards AChE (from Electrophorus electricus (electric eeAChE, Sigma-Aldrich) and horse serum BChE (eqBChE, Sigma-Aldrich) or human AChE – huAChE; human BuChE – huBuChE (huAChE, huBuChE, Sigma-Aldrich) were measured by Ellman’s method. In 96-well plates, a mixture of phosphate buffer (0.1 M, pH 8.0, […]), 5,5′-dithiobis-2-nitrobenzoic acid (DTNB, 60 µL), acetylcholinestrase or butyrylcholinesterase (20 µL, 5 IU/mL) and different concentration of the compound solution (30 µL) was pre-incubated for 5 min followed by the addition of the substrate (acetylthiocholine iodide or butyrylthiocholine iodide, 20 µL). […] The measurement of each concentration for each compound was detected in triplicate. GraphPad Prism 6.0 (GraphPad Software, Inc., La Jolla, CA) was used for data processing. The inhibition curve was fitted by plotting percentage enzyme activity (100% for the reference) versus the logarithm of the concentration of tested compound. The half-maximal inhibitory concentration (IC50) values were calculated according to the inhibition curve and the data were shown in the layout of mean ± SEM by GraphPad Prism 6.0.

[2] = target: T2, BChE (EC 3.1.1.8) from horse serum (Equus caballus, UniProt P81908); test: biochemical; conditions: for inhibition at 100 µM: compound at 100 μM, read-out: BChE IR (inhibitory rate)
T2 construct: horse serum BChE (eqBChE, Sigma-Aldrich); purchased Sigma-Aldrich; host or cells: horse serum
T2 sequence (P81908 whole entry): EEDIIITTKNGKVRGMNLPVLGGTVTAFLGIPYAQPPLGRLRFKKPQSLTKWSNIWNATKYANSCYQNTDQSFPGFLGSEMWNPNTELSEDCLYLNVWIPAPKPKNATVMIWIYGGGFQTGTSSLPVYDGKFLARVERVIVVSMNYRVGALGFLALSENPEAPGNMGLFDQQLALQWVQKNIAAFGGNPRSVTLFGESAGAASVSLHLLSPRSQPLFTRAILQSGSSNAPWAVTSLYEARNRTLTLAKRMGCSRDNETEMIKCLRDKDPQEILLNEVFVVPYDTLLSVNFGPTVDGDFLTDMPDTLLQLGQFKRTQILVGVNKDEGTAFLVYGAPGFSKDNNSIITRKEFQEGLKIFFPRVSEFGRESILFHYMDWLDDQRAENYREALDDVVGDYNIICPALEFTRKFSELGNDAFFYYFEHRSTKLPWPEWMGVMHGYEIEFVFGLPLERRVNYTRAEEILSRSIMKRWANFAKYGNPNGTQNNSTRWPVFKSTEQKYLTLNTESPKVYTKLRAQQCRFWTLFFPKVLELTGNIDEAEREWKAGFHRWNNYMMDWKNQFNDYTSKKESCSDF
Experimental: as §1, §2

[3] = eeAChE, mean ± SEM of triplicate independent experiments, read-out: AChE IC50
[4] = eqBChE, mean ± SEM of triplicate independent experiments, read-out: BChE IC50

| Structure (SMILES) | IC50 [1, 3] [µM] | inhibition at 100 µM ([2]; eqBChE) [%] | further results |
| --- | --- | --- | --- |
| Cc1ccc(CN2CCC(CNC(=O)c3ccc4c(c3)n(C)c(=O)n4C)CC2)cc1C [Compound 9e, N-((1–(3,4-dimethylbenzyl)piperidin-4-yl)methyl)-1,3-dimethyl-2-oxo-2,3-dihydro-1H-benzo[d]imidazole-5-carboxamide] | 9.97 ± 2.52 | 30.8 | – |
| Cc1cccc(CN2CCC(CNC(=O)c3ccc4c(c3)n(C)c(=O)n4C)CC2)c1 [Compound 9c, 1,3-dimethyl-N-((1–(3-methylbenzyl)piperidin-4-yl)methyl)-2-oxo-2,3-dihydro-1H-benzo[d]imidazole-5-carboxamide] | 3.83 ± 2.04 | 44 | – |
| Cn1c(=O)n(C)c2cc(C(=O)NCC3CCN(Cc4ccccc4Br)CC3)ccc21 [Compound 9n, N-((1–(2-bromobenzyl)piperidin-4-yl)methyl)-1,3-dimethyl-2-oxo-2,3-dihydro-1H-benzo[d]imidazole-5-carboxamide] | 8.87 ± 4.56 | 43.5 | – |
| Cn1c(=O)n(C)c2cc(C(=O)NCC3CCN(Cc4ccc(F)cc4)CC3)ccc21 [Compound 9j, N-((1–(4-fluorobenzyl)piperidin-4-yl)methyl)-1,3-dimethyl-2-oxo-2,3-dihydro-1H-benzo[d]imidazole-5-carboxamide] | 4.7 ± 2.01 | – | SI (selectivity index = AChE IC50/BChE IC50) [1]: 1.27; IC50 [2, 4]: 3.71 ± 1.88 µM |
| Cn1c(=O)n(C)c2cc(C(=O)NCC3CCN(Cc4ccc(Br)cc4)CC3)ccc21 [Compound 9p, N-((1–(4-bromobenzyl)piperidin-4-yl)methyl)-1,3-dimethyl-2-oxo-2,3-dihydro-1H-benzo[d]imidazole-5-carboxamide] | 11.1 ± 6.42 | 38.5 | – |
| Cn1c(=O)n(C)c2cc(C(=O)NCC3CCN(Cc4ccc(Cl)cc4)CC3)ccc21 [Compound 9m, N-((1–(4-chlorobenzyl)piperidin-4-yl)methyl)-1,3-dimethyl-2-oxo-2,3-dihydro-1H-benzo[d]imidazole-5-carboxamide] | 0.21 ± 0.03 | 49.9 | fold increase of inhibitory activity towards AChE compared to 9a ([1]; eeAChE): 15 fold |
| Cn1c(=O)n(C)c2cc(C(=O)NCC3CCN(Cc4ccccc4F)CC3)ccc21 [Compound 9h, N-((1–(2-fluorobenzyl)piperidin-4-yl)methyl)-1,3-dimethyl-2-oxo-2,3-dihydro-1H-benzo[d]imidazole-5-carboxamide] | 16.2 ± 4.34 | 30 | – |
| COc1ccc(CN2CCC(CNC(=O)c3ccc4[nH]ncc4c3)CC2)cc1 [Compound 11b, N-((1–(4-methoxybenzyl)piperidin-4-yl)methyl)-1H-indazole-5-carboxamide] | – | 44.6 | inhibition at 100 µM [1]: 48.6% |
| Cn1c(=O)n(C)c2cc(C(=O)NCC3CCN(Cc4cccc(Br)c4)CC3)ccc21 [Compound 9o, N-((1–(3-bromobenzyl)piperidin-4-yl)methyl)-1,3-dimethyl-2-oxo-2,3-dihydro-1H-benzo[d]imidazole-5-carboxamide] | 3.69 ± 1.83 | 42.8 | – |
| Cn1c(=O)n(C)c2cc(S(=O)(=O)NCC3CCN(Cc4ccccc4Br)CC3)ccc21 [Compound 15i, N-((1–(2-bromobenzyl)piperidin-4-yl)methyl)-1,3-dimethyl-2-oxo-2,3-dihydro-1H-benzo[d]imidazole-5-sulphonamide] | 0.42 ± 0.06 | – | IC50 [2, 4]: 0.22 ± 0.04 µM |
| Cn1c(=O)n(C)c2cc(C(=O)NCC3CCN(Cc4cccc(Cl)c4)CC3)ccc21 [Compound 9l, N-((1–(3-chlorobenzyl)piperidin-4-yl)methyl)-1,3-dimethyl-2-oxo-2,3-dihydro-1H-benzo[d]imidazole-5-carboxamide] | 6 ± 3.31 | 36.9 | – |
| O=C(NCC1CCN(Cc2ccccc2)CC1)c1ccc2[nH]nnc2c1 [Compound 11f, N-((1-benzylpiperidin-4-yl)methyl)-1H-benzo[d][1,2,3]triazole-5-carboxamide] | – | 43.1 | IC50 [1]: 0.46 ± 0.4 µM |
| Cn1c(=O)n(C)c2cc(S(=O)(=O)NCC3CCN(Cc4cccc(F)c4)CC3)ccc21 [Compound 15f, N-((1–(3-fluorobenzyl)piperidin-4-yl)methyl)-1,3-dimethyl-2-oxo-2,3-dihydro-1H-benzo[d]imidazole-5-sulphonamide] | 1.04 ± 0.48 | – | SI (selectivity index = AChE IC50/BChE IC50) [1]: 0.75; IC50 [2, 4]: 1.37 ± 0.74 µM |
| Cc1ccccc1CN1CCC(CNC(=O)c2ccc3c(c2)n(C)c(=O)n3C)CC1 [Compound 9b, 1,3-dimethyl-N-((1–(2-methylbenzyl)piperidin-4-yl)methyl)-2-oxo-2,3-dihydro-1H-benzo[d]imidazole-5-carboxamide] | 8.08 ± 2.66 | 41.4 | – |
| O=C(NCC1CCN(Cc2ccccc2Cl)CC1)c1ccc2[nH]ncc2c1 [Compound 11c, N-((1–(2-chlorobenzyl)piperidin-4-yl)methyl)-1H-indazole-5-carboxamide] | – | – | IC50 [1]: 5.44 ± 2.22 µM; SI (selectivity index = AChE IC50/BChE IC50) [1]: 0.26; IC50 [2]: 21.3 ± 5 µM |
| COc1ccc(CN2CCC(CNC(=O)c3ccc4[nH]cnc4c3)CC2)cc1 [Compound 11d, N-((1–(4-methoxybenzyl)piperidin-4-yl)methyl)-1H-benzo[d]imidazole-5-carboxamide] | – | 16.5 | inhibition at 100 µM [1]: 18.8% |
| Cc1ccc(CN2CCC(CNS(=O)(=O)c3ccc4c(c3)n(C)c(=O)n4C)CC2)cc1 [Compound 15d, 1,3-dimethyl-N-((1–(4-methylbenzyl)piperidin-4-yl)methyl)-2-oxo-2,3-dihydro-1H-benzo[d]imidazole-5-sulphonamide] | 24.8 ± 3.48 | – | SI (selectivity index = AChE IC50/BChE IC50) [1]: 0.24; IC50 [2, 4]: 100 ± 22.1 µM |
| COc1ccc(CN2CCC(CNC(=O)c3ccc4c(c3)n(C)c(=O)n4C)CC2)cc1 [Compound 9g, N-((1–(4-methoxybenzyl)piperidin-4-yl)methyl)-1,3-dimethyl-2-oxo-2,3-dihydro-1H-benzo[d]imidazole-5-carboxamide] | 5.17 ± 2.25 | 41.5 | – |
| Cn1c(=O)n(C)c2cc(C(=O)NCC3CCN(Cc4ccccc4)CC3)ccc21 [Compound 9a, N-((1-benzylpiperidin-4-yl)methyl)-1,3-dimethyl-2-oxo-2,3-dihydro-1H-benzo[d]imidazole-5-carboxamide] | 3.14 ± 1.12 | 43.9 | – |
| Cc1cccc(CN2CCC(CNS(=O)(=O)c3ccc4c(c3)n(C)c(=O)n4C)CC2)c1 [Compound 15c, 1,3-dimethyl-N-((1–(3-methylbenzyl)piperidin-4-yl)methyl)-2-oxo-2,3-dihydro-1H-benzo[d]imidazole-5-sulphonamide] | 0.54 ± 0.14 | – | SI (selectivity index = AChE IC50/BChE IC50) [1]: 1.14; IC50 [2, 4]: 0.47 ± 0.17 µM |
| COc1cccc(CN2CCC(CNS(=O)(=O)c3ccc4c(c3)n(C)c(=O)n4C)CC2)c1 [Compound 15e, N-((1–(3-methoxybenzyl)piperidin-4-yl)methyl)-1,3-dimethyl-2-oxo-2,3-dihydro-1H-benzo[d]imidazole-5-sulphonamide] | 9.35 ± 2.32 | – | SI (selectivity index = AChE IC50/BChE IC50) [1]: 0.45; IC50 [2, 4]: 20.3 ± 3.08 µM |
| Cc1ccc(CN2CCC(CNC(=O)c3ccc4c(c3)n(C)c(=O)n4C)CC2)cc1 [Compound 9d, 1,3-dimethyl-N-((1–(4-methylbenzyl)piperidin-4-yl)methyl)-2-oxo-2,3-dihydro-1H-benzo[d]imidazole-5-carboxamide] | 25.7 ± 12.3 | 37.8 | – |
| COc1ccc(CN2CCC(CNC(=O)c3ccc4[nH]ccc4c3)CC2)cc1 [Compound 11a, N-((1–(4-methoxybenzyl)piperidin-4-yl)methyl)-1H-indole-5-carboxamide] | – | – | IC50 [1]: 38.1 ± 12.8 µM; SI (selectivity index = AChE IC50/BChE IC50) [1]: 3.54; IC50 [2]: 10.8 ± 5.55 µM |
| Cn1c(=O)n(C)c2cc(S(=O)(=O)NCC3CCN(Cc4ccccc4)CC3)ccc21 [Compound 15a, N-((1-benzylpiperidin-4-yl)methyl)-1,3-dimethyl-2-oxo-2,3-dihydro-1H-benzo[d]imidazole-5-sulphonamide] | 0.38 ± 0.08 | – | SI (selectivity index = AChE IC50/BChE IC50) [1]: 0.84; IC50 [2, 4]: 0.45 ± 0.02 µM |
| Cn1c(=O)n(C)c2cc(C(=O)NCC3CCN(Cc4cccc(F)c4)CC3)ccc21 [Compound 9i, N-((1–(3-fluorobenzyl)piperidin-4-yl)methyl)-1,3-dimethyl-2-oxo-2,3-dihydro-1H-benzo[d]imidazole-5-carboxamide] | 2.93 ± 1.96 | – | IC50 [2, 4]: 95.1 ± 59.3 µM |
| Cn1c(=O)n(C)c2cc(C(=O)NCC3CCN(Cc4ccccc4Cl)CC3)ccc21 [Compound 9k, N-((1–(2-chlorobenzyl)piperidin-4-yl)methyl)-1,3-dimethyl-2-oxo-2,3-dihydro-1H-benzo[d]imidazole-5-carboxamide] | 3.92 ± 1.2 | 46.5 | – |
| COc1cccc(CN2CCC(CNC(=O)c3ccc4c(c3)n(C)c(=O)n4C)CC2)c1 [Compound 9f, N-((1–(3-methoxybenzyl)piperidin-4-yl)methyl)-1,3-dimethyl-2-oxo-2,3-dihydro-1H-benzo[d]imidazole-5-carboxamide] | – | 25 | inhibition at 100 µM [1]: 33.5% |
